Source: patent US8598126B2, “Peptides for inhibiting the HPV-E6 oncoprotein” (priority 2008, dated 2013)

What was measured:
[1] = system: HPV16-positive SiHa cells; test: Clonogenic survival assay, SiHa; type: cell-based; conditions: stable expression
From the text: HPV16-positive cell lines SiHa and MRI-H-186, HPV18-positive HeLa cells and the HPV-negative osteosarcoma cell line U-2 OS were transfected with peptide expression vectors which allowed for hygromcyin B selection (pCEP4, Invitrogen). After 6-7 days of selection, cells were fixed and stained with formaldehyde-crystal violet solution.

[2] = system: HPV16-positive CaSki cells; test: Clonogenic survival assay, CaSki; type: cell-based; conditions: stable expression
[3] = molecular target: HPV16 E6 (Human papillomavirus type 16, UniProt P03126); conditions: FIG. 1, solubility-optimized versions and mutants
Chain of HPV16 E6 (P03126 whole entry): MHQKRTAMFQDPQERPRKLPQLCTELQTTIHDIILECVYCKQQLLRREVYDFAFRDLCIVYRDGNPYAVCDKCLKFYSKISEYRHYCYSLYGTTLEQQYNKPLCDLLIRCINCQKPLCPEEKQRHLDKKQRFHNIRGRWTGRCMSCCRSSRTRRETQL

| Substance | growth in clonogenic survival assay [1] | growth in clonogenic survival assay [2] | activity (binding to HPV16 E6) of pep 11 variants and mutants [3] |
| --- | --- | --- | --- |
| E6AP peptide: E6 binding consensus motif within E6AP (SEQ ID NO: 9) (KEKEEYNSNSSSIASIGLI; E6 pep11*) [reference compound] | showed no effect | showed no effect |  |
| pep11**m (EYNSNCSCIACIGLI; E6 pep11*) | showed no effect | showed no effect | inactive |
